What was measured:
[1] = system: Pomc heterozygous knock-out mice; assay: Anti-obesity efficacy in high fat diet POMC heterozygous deficient mouse model; type: in vivo; conditions: 60 kcal % high-fat diet, 10 mg/kg or 30 mg/kg for about 3 weeks, FIG. 1
Procedure: Pomc heterozygous knock-out mice, in which the Pomc gene encoding proopiomelanocortin (POMC) is not normally expressed, were fed a 60 kcal % high-fat diet (diet with 60 kcal % fat), while administering N-((3S,5S)-1-((3S,4R)-1-(tert-butyl)-4-(4-chlorophenyl)pyrrolidine-3-carbonyl)-5-(morpholine-4-carbonyl)pyrrolidin-3-yl)-N-((1s,4R)-4-methylcyclohexyl)isobutyramide hydrochloride (hereinafter referred to as “test compound”) obtained from the example of preparation at a dose of 10 mg/kg or 30 mg/kg for about 3 weeks to determine the anti-obesity efficacy, and the results are shown in FIG. 1.

[2] = system: Pomc homozygous knock-out mice; assay: Anti-obesity efficacy in high fat diet POMC homozygous deficient mouse model; type: in vivo; conditions: 45 kcal % high-fat diet, 10 mg/kg or 30 mg/kg for about 10 days, FIG. 2
Procedure: Pomc homozygous knock-out mice, in which the Pomc gene encoding proopiomelanocortin (POMC) is not expressed, were administered with the test compound at a dose of 10 mg/kg or 30 mg/kg for about 10 days while fed a 45 kcal % high-fat diet (diet with 45 kcal % fat) to determine the anti-obesity efficacy, and the results are shown in FIG. 2.

CC(C)C(=O)N([C@H]1C[C@@H](C(=O)N2CCOCC2)N(C(=O)[C@@H]2CN(C(C)(C)C)C[C@H]2c2ccc(Cl)cc2)C1)[C@H]1CC[C@@H](C)CC1.Cl [test compound, N-((3S,5S)-1-((3S,4R)-1-(tert-butyl)-4-(4-chlorophenyl)pyrrolidine-3-carbonyl)-5-(morpholine-4-carbonyl)pyrrolidin-3-yl)-N-((1s,4R)-4-methylcyclohexyl)isobutyramide hydrochloride] was tested, and the anti-obesity efficacy [1] was “excellent anti-obesity effects” and the anti-obesity efficacy [2] was “excellent anti-obesity effects”.

Reference: patent US20250134898A1, “USE OF MELANOCORTIN-4 RECEPTOR AGONIST IN PREVENTING OR TREATING RARE GENETIC OBESITY DISEASE” (LG CHEM, LTD., priority 2022, published 2025)
